Drawing on US6534523B1, “Hepatitis C inhibitor tri-peptides” (Boehringer Ingelheim (Canada) Ltd., priority 1998, dated 2003), this text covers IC50 for 37 compounds.

SMILES strings stand for the structures. Read-outs that look alike come from different tables or passages of the source.

Usually IC50 stands for the concentration that gives 50% inhibition.

For the test, the target named is HCV NS3 protease (UniProt P26663). It counts as biochemical, HCV genotype 1b. Set-up: rows headed: IC50 (μM); IC50 (μM).
Chain of HCV NS3 protease (P26663 1027-1206, other chains not shown): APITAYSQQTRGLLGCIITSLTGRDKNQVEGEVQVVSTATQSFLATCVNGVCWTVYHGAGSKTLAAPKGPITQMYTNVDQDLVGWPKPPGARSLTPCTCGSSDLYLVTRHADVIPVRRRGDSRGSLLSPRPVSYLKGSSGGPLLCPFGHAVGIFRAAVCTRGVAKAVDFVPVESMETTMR

As for `C=CC1CC1(NC(=O)C1CC(Oc2cc(-c3ccccc3)nc3cc(OC)ccc23)CN1C(=O)C(NC(=O)OC(C)(C)C)C(C)OC(C)(C)C)C(=O)O` (stereo not shown) [compound 850], the IC50 (Table 8) worked out at 63 nM.

Take `C=CC1CC1(NC(=O)C1CC(Oc2cc(N3CCOCC3)nc3cc(OC)ccc23)CN1C(=O)C(NC(=O)OC(C)(C)C)C(C)(C)C)C(=O)O` (stereo not shown) [compound 705]: where the note is “Table 7”, the IC50 was 130 nM.

Where the note is “Table 8”, `C=CC1CC1(NC(=O)C1CC(Oc2cc(-c3ccccc3Cl)nc3cc(OC)ccc23)CN1C(=O)C(NC(=O)OC(C)(C)C)C(C)(C)C)C(=O)O` (stereo not shown) [compound 814] came in with an IC50 of 130 nM.

With `C=CC1CC1(NC(=O)C1CC(Oc2cc(-c3ccccc3)nc3cc(OC)ccc23)CN1C(=O)C(Nc1ccc2c(c1)OCO2)C(C)C)C(=O)O` (stereo not shown) [compound 846], under “Table 8”, the IC50 stood at 104 nM.

`C=CC1CC1(NC(=O)C1CC(Oc2cc(N3CCCCC3)nc3ccccc23)CN1C(=O)C(NC(=O)OC(C)(C)C)C(C)(C)C)C(=O)O` (stereo not shown) [compound 617] had a half-inhibitory concentration (IC50) (Table 6) of 345 nM.

The compound `C=CC1CC1(NC(=O)C1CC(Oc2cc(OCC)nc3cc(OC)ccc23)CN1C(=O)C(NC(=O)OC(C)(C)C)C(C)(C)C)C(=O)O` (stereo not shown) [compound 703] gave a half-maximal inhibitory concentration (IC50) (Table 7) of 47 nM.

As to `C=CC1CC1(NC(=O)C1CC(Oc2cc(-c3ccccc3)nc3cc(OC)ccc23)CN1C(=O)C(NC(=O)C(O)C1CCCCC1)C(C)(C)C)C(=O)O` (stereo not shown) [compound 802], half-maximal inhibition (Table 8) (IC50) required 24 nM.

Compound `C=CC1CC1(NC(=O)C1CC(Oc2cc(-c3ccccc3)nc3cc(Br)ccc23)CN1C(=O)C(NC(=O)OC(C)(C)C)C(C)(C)C)C(=O)O` (stereo not shown) [compound 626] gave an IC50 (Table 6) of 240 nM.

For the compound `C=CC1CC1(NC(=O)C1CC(Oc2cc(-c3ccccc3)nc3cc(OC)ccc23)CN1C(=O)C(Nc1cccc(CCO)c1)C(C)C)C(=O)O` (stereo not shown) [compound 855], the IC50 (Table 8) was 75 nM.

`C=CC1CC1(NC(=O)C1CC(Oc2ccnc3cc(Cl)ccc23)CN1C(=O)C(NC(=O)OC(C)(C)C)C(C)(C)C)C(=O)O` (stereo not shown) [compound 606]: the IC50 (Table 6) worked out at 480 nM.

For the setting “Table 9”, `C=CC1CC1(NC(=O)C1CC(Oc2cc(-c3ccccc3)nc3cc(OC)ccc23)CN1C(=O)C(NC(=O)c1cccc(O)c1)C(C)(C)C)C(=O)O` (stereo not shown) [compound 904] had an IC50 of 95 nM.

As to `C=CC1CC1(NC(=O)C1CC(Oc2cc(-c3ccccc3)nc3cc(OC)ccc23)CN1C(=O)C(NC(=O)N(C)C(C)(C)C)C(C)(C)C)C(=O)O` (stereo not shown) [compound 858], under “Table 8”, 205 nM corresponded to half-maximal inhibition (IC50).

As for `C=CC1CC1(NC(=O)C1CC(Oc2cc(-c3ccccc3)nc3cc(OC)ccc23)CN1C(=O)C(NC(C)=O)C(C)(C)C)C(=O)O` (stereo not shown) [compound 805], under “Table 8”, the IC50 is 83 nM.

For `C=CC1CC1(NC(=O)C1CC(Oc2cc(-c3cccnc3)nc3cc(OC)ccc23)CN1C(=O)C(NC(=O)OC(C)(C)C)C(C)(C)C)C(=O)O` (stereo not shown) [compound 727], it took 70 nM to reach half-maximal inhibition (Table 7) (IC50).

Turning to `C=CC1CC1(NC(=O)C1CC(Oc2cc(-c3ccccc3)nc3cc(OC)ccc23)CN1C(=O)C(NC(=O)NN(C)C)C(C)(C)C)C(=O)O` (stereo not shown) [compound 827], the IC50 (Table 8) stood at 270 nM.

In the case of `C=CC1C[C@]1(NC(=O)[C@@H]1C[C@@H](Oc2cc(C(=O)O)nc3cc(OC)ccc23)CN1C(=O)[C@@H](NC(=O)OC(C)(C)C)C(C)(C)C)C(=O)O` (stereo partly shown) [compound 710], for the setting “Table 7”, the IC50 was found to be 685 nM.

On to `C=CC1CC1(NC(=O)C1CC(Oc2cc(-c3ccccc3)nc3cc(OC)ccc23)CN1C(=O)C(NC(=O)NC(C)(C)CO)C(C)(C)C)C(=O)O` (stereo not shown) [compound 835], for which 7 nM corresponded to half-maximal inhibition (Table 8) (IC50).

For `C=CC1CC1(NC(=O)C1CC(Oc2cc(-c3ccccc3)nc3cc(OC)ccc23)CN1C(=O)C(NC(=O)NCc1ccccc1)C(C)(C)C)C(=O)O` (stereo not shown) [compound 817], the IC50 (Table 8) was 17 nM.

Compound `C=CC1CC1(NC(=O)C1CC(Oc2cc(-c3ccccc3)nc3cc(OC)ccc23)CN1C(=O)C(NS(=O)(=O)c1ccccc1)C(C)(C)C)C(=O)O` (stereo not shown) [compound 909] registered an IC50 (Table 9) of 36 nM.

In turn, `C=CC1CC1(NC(=O)C1CC(Oc2ccnc3ccccc23)CN1C(=O)C(NC(=O)OC(C)(C)C)C(C)CC)C(=O)O` (stereo not shown) [compound 510] came in with an IC50 (Table 5) of 255 nM.

Turning to `C=CC1CC1(NC(=O)C1CC(Oc2cc(-c3ccccc3)nc3cc(OC)ccc23)CN1C(=O)C(Nc1ccc([N+](=O)[O-])cc1)C(C)C)C(=O)O` (stereo not shown) [compound 836], where the note is “Table 8”, the IC50 was 130 nM.

Consider `C=CC1CC1(NC(=O)C1CC(Oc2cc(-c3ccccc3)nc3cc(OC)ccc23)CN1C(=O)C(NC(=O)NCC)C(C)(C)C)C(=O)O` (stereo not shown) [compound 816], for which, under “Table 8”, half-maximal inhibition (IC50) required 32 nM.

Under “Table 5”, `C=CC1CC1(NC(=O)C1CC(Oc2ccnc3ccccc23)CN1C(=O)C(NC(=O)OC(C)(C)C)C(C)OC(C)(C)C)C(=O)O` (stereo not shown) [compound 503] returned an IC50 of 790 nM.

`C=CC1CC1(NC(=O)C1CC(Oc2cc(-c3ccccc3)nc3cc(OC)ccc23)CN1C(=O)C(NC(=O)Nc1nccs1)C(C)(C)C)C(=O)O` (stereo not shown) [compound 913] yielded an IC50 (Table 9) of 30 nM.

In turn, `C=CC1CC1(NC(=O)C1CC(Oc2cc(-c3ccccc3)nc3cc(N(C)C)ccc23)CN1C(=O)C(NC(=O)OC(C)(C)C)C(C)(C)C)C(=O)O` (stereo not shown) [compound 611] came in with an IC50 (Table 6) of 35 nM.

`C=CC1CC1(NC(=O)C1CC(Oc2cc(-c3cccc(C)c3)nc3cc(OC)ccc23)CN1C(=O)C(NC(=O)OC(C)(C)C)C(C)(C)C)C(=O)O` (stereo not shown) [compound 842]: where the note is “Table 8”, inhibition was half-maximal at 73 nM (IC50).

Take `C=CC1CC1(NC(=O)C1CC(Oc2cc(C=Cc3ccccc3)nc3cc(OC)ccc23)CN1C(=O)C(NC(=O)OC(C)(C)C)C(C)(C)C)C(=O)O` (stereo not shown) [compound 702]: the IC50 (Table 7) turned out to be 100 nM.

For the compound `C=CC1CC1(NC(=O)C1CC(Oc2cc(-c3csc(NC)n3)nc3cc(OC)ccc23)CN1C(=O)C(NC(=O)OC(C)(C)C)C(C)(C)C)C(=O)O` (stereo not shown) [compound 717], the IC50 (Table 7) stood at 28 nM.

Consider `C=CC1CC1(NC(=O)C1CC(Oc2ccnc3ccccc23)CN1C(=O)C(NC(=O)OC(C)(C)C)C(C)OC)C(=O)O` (stereo not shown) [compound 505], for which the IC50 (Table 5) was determined as 790 nM.

Turning to `C=CC1CC1(NC(=O)C1CC(Oc2ccnc3ccccc23)CN1C(=O)C(NC(=O)OC(C)(C)C)C(O)C1CCCCC1)C(=O)O` (stereo not shown) [compound 511], inhibition (Table 5) was half-maximal at 2100 nM (IC50).

Compound `C=CC1CC1(NC(=O)C1CC(Oc2cc(-c3ccccc3)nc3cc(OC)ccc23)CN1C(=O)C(Nc1ccc(N)c(C(F)(F)F)c1)C(C)C)C(=O)O` (stereo not shown) [compound 820] registered an IC50 (Table 8) of 63 nM.

For the setting “Table 8”, `C=CC1CC1(NC(=O)C1CC(Oc2cc(-c3ccccc3)nc3cc(OC)ccc23)CN1C(=O)C(NC(=O)NC(C)(C)COC)C(C)(C)C)C(=O)O` (stereo not shown) [compound 857] gave an IC50 of 11 nM.

`C=CC1CC1(NC(=O)C1CC(Oc2cc(-c3ccc(C)cc3)nc3cc(OC)ccc23)CN1C(=O)C(NC(=O)OC(C)(C)C)C(C)(C)C)C(=O)O` (stereo not shown) [compound 843] came in with an IC50 (Table 8) of 53 nM.

Consider `C=CC1CC1(NC(=O)C1CC(Oc2cc(N3CCc4ccccc43)nc3cc(OC)ccc23)CN1C(=O)C(NC(=O)OC(C)(C)C)C(C)(C)C)C(=O)O` (stereo not shown) [compound 704], for which, where the note is “Table 7”, half-maximal inhibition (IC50) was put at 240 nM.

As to `C=CC1CC1(NC(=O)C1CC(Oc2cc(-c3ccccc3)nc3cc(OC)ccc23)CN1C(=O)C(CC(C)C)NC(=O)OC(C)(C)C)C(=O)O` (stereo not shown) [compound 848], the IC50 (Table 8) was determined as 93 nM.

Under “Table 6”, `C=CC1CC1(NC(=O)C1CC(Oc2cc(CN3CCOCC3)nc3ccccc23)CN1C(=O)C(NC(=O)OC(C)(C)C)C(C)(C)C)C(=O)O` (stereo not shown) [compound 609] returned an IC50 of 1700 nM.

Compound `C=CC1CC1(NC(=O)C1CC(Oc2cc(-c3ccccc3)nc3cc(OC)ccc23)CN1C(=O)C(NS(=O)(=O)c1sc(NC(C)=O)nc1C)C(C)(C)C)C(=O)O` (stereo not shown) [compound 914] registered an IC50 (Table 9) of 31 nM.
